Reference: patent US4824937A, “Synthetic natriuretic peptides” (501 Advanced Peptide Development, Ltd., priority 1986, dated 1989)
Ends that are not written are not given here.

Columns and labels:
[1] = tested on: male normotensive Sprague-Dawley rats; test: Diuretic activity: urine flow after i.v. bolus in anesthetized rats; format: in vivo, rat; conditions: 3.5 mcg/kg i.v. bolus; for URINE FLOW: 8 rats
Protocol: The diuretic activities of the synthetic natriuretic peptides (SNP) of this invention and their effects upon electrolyte excretion are determined in male normotensive Sprague-Dawley rats. The animals are anesthetized with sodium pentobarbital (55 mg/kg), the femoral vein is cannulated for injection of the test compound and for infusion of Ringer's solution, the bladder is cannulated for urine collection, and the trachea is cannulated to ensure a clean airway. The animals are infused with Ringer's solution at a rate of 1.2 ml/20 min. for 20 minutes, the infusion rate is then decreased to 1.2 ml/hour for a further 20 minutes, and urine collections are started at the end of that period. Three 10-minute collections are taken as control samples, and at the end of the third 10-minute period the SNP to be tested is injected as a bolus over 30 seconds into the femoral vein. Infusion of Ringer's solution at 1.2 ml/hour is continued for the duration of the experiment, and urine samples are collected every 10 minutes over 4 hours, their respective volumes are determined, and the concentrations of Na^+, Cl^-, and K^+ are measured using a NovaBiomedical electrolyte analyzer. The above determinations are done on samples pooled from all animals in a given experiment, and urine flow is calculated as ml/min./kg body weight while electrolyte concentrations are calculated as mmol/l/gm kidney tissue.
Details of the assay method are described above, and it remains only to be stated that 8 male normotensive Sprague-Dawley rats are used in each group. […] Urine flow then decreases sharply and is at control volumes at about 40 minutes where it remains until about 140 minutes.

[2] = tested on: rabbit thoracic aorta strips; test: Vasorelaxant activity against noradrenaline-induced tension in aorta strips; conditions: for Relative Potency: potency of BG-3009 taken arbitrarily as 100; for Ratio (noradrenaline EC50 in the presence of compound divided by EC50 with noradrenaline alone): added 5 min before noradrenaline
Protocol: The vasorelaxant activities of the SNP of this invention are determined in vitro using freshly prepared rabbit thoracic aorta strips, helically cut according to the method of Furchgott et al., 1953 J. Pharmacol. Exp. Therap. 108, 129. One end of each strip is attached to a holding rod, the other end is equipped with a silk thread which is kept under a tension of about 5 g, and the complete assembly is kept over night at 4° C. in oxygenated Krebs solution. On the day of the experiment each strip is set up in a 10 ml bath of oxygenated (5% CO2) Krebs solution at 37° C. and the thread is attached to an isometric force transducer (Grass Instruments Model FT.03) connected to a polygraph (Grass Instruments Model 5). A resting tension of 5 g is applied to each strip and is readjusted until a stable resting tension is attained (45-60 minutes). The strips are then challenged repeatedly with the same dose of noradrenaline to ensure that the induced increase in tension is uniform. The stock solution of noradrenaline bitartrate (Sigma Chemical Co.) is made up in 0.001N HCl, and dilutions are freshly prepared in deionized water containing 0.0001M ascorbic acid and are kept protected from light during the experiments. In each experiment two cumulative full dose-response determinations to noradrenaline alone are carried out consecutively on one strip (time control). On the other strips dose-response determinations are done with noradrenaline alone, and then repeated five minutes after having added the compound to be tested to concentrations of 2, 5, 50, and 500 ng/ml, respectively. The tension elicited by each concentration of noradrenaline is expressed as a percentage of the maximal response obtained with noradrenaline, and the concentration of noradrenaline producing a tension equal to 50% of the maximal response is calculated (EC50). The same calculations are also carried out with the results obtained in the presence of the various concentrations of the compound to be tested, and the EC50 thus obtained is divided by the EC50 obtained in the absence of said compound, to arrive at a ration which is clear indication of the potency of the respective compound.
The SNP of formula 1 in which R^1 is H-D-Tyr, R^2 is Ile, and R^3 is OH, identified by the code number 05-22-0318 is tested for its vasorelaxant activities and compared with a known ANP composed of 28 amino acid residues and identified by the code number BG-3009. The test method is described above in some detail. Two rabbits are sacrificed and the thoracic aorta prepared from each animal is helically cut so as to obtain five strips from each aorta. One strip from each aorta is used for time control and is exposed to the full range of concentrations of noradrenaline alone at the beginning and at the end of the experiment, and the concentrations of noradrenaline giving 50% of the maximal response are calculated (EC50). […] One strip from each of the remaining two pairs of strips from each aorta is then exposed to the full range of concentrations of noradrenaline alone as described above, and the responses are noted. The other strip from the same pair is first exposed to concentrations of 2, 5, 50, and 500 ng/ml of the compound to be tested, respectively, and five minutes after having added the above concentrations of the compound to be tested the strip is challenged with noradrenaline at increasing concentrations and the responses obtained are noted again. The EC50 obtained in the presence of the respective concentration of the compound to be tested is then divided by the EC50 obtained in the absence of said compound with noradrenaline alone, and the ratio of the two EC50's is calculated to give a clear measure of the vasorelaxant properties of said compound. Furthermore, when taking the potency of the reference compound having the code number BG-3009 arbitrarily as 100 the relative potencies of the above SNP (code No. 05-22-0318) at the respective levels of concentration are also calculated. […]

BG-3009: known ANP composed of 28 amino acid residues, identical with the ANP described by Flynn et al. (SLRRSSCFGGRIDRIGAQSGLGCNSFRY; not fully specified; ends and bridges not checked; UniProt P01161 123-150, looked up)
effect on urine flow, late phase (in words) ([1]; from 150 minutes (BG-3009: after 130 minutes) to the end of the experiment): hardly noticeable and may not be significant | effect on urine flow, early phase (in words) ([1]; from injection up to 130-140 minutes): shows similar effects up to 130 minutes | URINE FLOW ([1]; 10 min after injection): 333.7 ml./min./kg. body wt × 10^-3 | URINE FLOW ([1]; 20 min after injection): 55.7 ml./min./kg. body wt × 10^-3 | URINE FLOW ([1]; 30 min after injection): 23.3 ml./min./kg. body wt × 10^-3 | URINE FLOW ([1]; 40 min after injection): 16.4 ml./min./kg. body wt × 10^-3 | URINE FLOW ([1]; 50 min after injection): 16.9 ml./min./kg. body wt × 10^-3 | URINE FLOW ([1]; 60 min after injection): 16.7 ml./min./kg. body wt × 10^-3 | URINE FLOW ([1]; 70 min after injection): 16.4 ml./min./kg. body wt × 10^-3 | URINE FLOW ([1]; 80 min after injection): 16.4 ml./min./kg. body wt × 10^-3 | URINE FLOW ([1]; 90 min after injection): 15.2 ml./min./kg. body wt × 10^-3 | URINE FLOW ([1]; 100 min after injection): 16.0 ml./min./kg. body wt × 10^-3 | URINE FLOW ([1]; 110 min after injection): 17.2 ml./min./kg. body wt × 10^-3 | URINE FLOW ([1]; 120 min after injection): 17.6 ml./min./kg. body wt × 10^-3 | URINE FLOW ([1]; 130 min after injection): 23.4 ml./min./kg. body wt × 10^-3 | URINE FLOW ([1]; 140 min after injection): 22.6 ml./min./kg. body wt × 10^-3 | URINE FLOW ([1]; 150 min after injection): 21.4 ml./min./kg. body wt × 10^-3 | URINE FLOW ([1]; 160 min after injection): 19.7 ml./min./kg. body wt × 10^-3 | URINE FLOW ([1]; 170 min after injection): 19.9 ml./min./kg. body wt × 10^-3 | URINE FLOW ([1]; 180 min after injection): 20.5 ml./min./kg. body wt × 10^-3 | URINE FLOW ([1]; 190 min after injection): 22.3 ml./min./kg. body wt × 10^-3 | URINE FLOW ([1]; 200 min after injection): 22.3 ml./min./kg. body wt × 10^-3 | URINE FLOW ([1]; 210 min after injection): 20.7 ml./min./kg. body wt × 10^-3 | URINE FLOW ([1]; 220 min after injection): 22.7 ml./min./kg. body wt × 10^-3 | URINE FLOW ([1]; 230 min after injection): 28.6 ml./min./kg. body wt × 10^-3 | URINE FLOW ([1]; 240 min after injection): 25.9 ml./min./kg. body wt × 10^-3 | Relative Potency ([2]; 2 ng/ml): 100 | Relative Potency ([2]; 5 ng/ml): 100 | Relative Potency ([2]; 50 ng/ml): 100 | Relative Potency ([2]; 500 ng/ml): 100 | Ratio (noradrenaline EC50 in the presence of compound divided by EC50 with noradrenaline alone) ([2]; compound concentration 2 ng/ml): 2.9 | Ratio (noradrenaline EC50 in the presence of compound divided by EC50 with noradrenaline alone) ([2]; compound concentration 5 ng/ml): 3.8 | Ratio (noradrenaline EC50 in the presence of compound divided by EC50 with noradrenaline alone) ([2]; compound concentration 50 ng/ml): 25.8 | Ratio (noradrenaline EC50 in the presence of compound divided by EC50 with noradrenaline alone) ([2]; compound concentration 500 ng/ml): 26.1
